Measured values reported in article PMC10562414, “GLP-1R signaling neighborhoods associate with the susceptibility to adverse drug reactions of incretin mimetics” (Nature Communications, 2023).

Tests used:
GLP-1R [1] = target: T1, GLP-1R (Homo sapiens, UniProt P43220); assay: ebBRET pathway activation (15 pathways) at the endoplasmic reticulum (tdrGFP-PTP1B); type: cell-based; settings: for Emax: Endoplasmic reticulum; for Efficacy (normalized) / Potency (logEC50): endoplasmic reticulum
Experimental: Subcellular resolution was achieved by using organelle-specific energy acceptors for early endosomes, the Golgi apparatus and the endoplasmic reticulum.
Data are represented as the mean ± SEM (n = 3 biologically independent experiments). EE early endosomes, GA Golgi apparatus, ER endoplasmic reticulum.
HEK293 cells were cultured in DMEM supplemented with 10% FBS, 1% penicillin/streptomycin, propagated in plastic flasks and grown at 37 °C in 5% CO2 and 90% humidity. […] After a 48-hour incubation, cells were washed once with HBSS and maintained in the same buffer.
Best fit values were excluded if EC50 was outside of the concentration range tested or if the span was negative. […] All further data processing was performed in R (version 4.2.1).
Pharmacological characterization of GLP-1R agonist signaling
profiles at the endoplasmic reticulum. a, Illustration depicting the ebBRET approach to
monitoring signaling at the endoplasmic reticulum. b, Concentration-response curves of GLP-1R
agonists across 15 pathways at the endoplasmic reticulum using tdrGFP-P TP1B. Data are
represented by the non-linear fit and sc aled according to the highest responding drug (n=3
biologically independent samples). Drug-s pecific polar area diagrams for efficacy (normalized
endoplasmic reticulum. Drugs were deemed to activate a given pathway after comparing
the top and bottom parameters from non-linear regression by one-sided extra sum-o f-
similarity index for efficacy (e) and potency (f) quantifies similarities and differences across drug
Drug- induced transducer engagement by GLP-1R at the
endoplasmic reticulum. Agonist concentration response curves for 15 transducers at the
endoplasmic reticulum. Drugs were deemed to activate a given pathway after comparing the top
and bottom parameters from non-linear regres sion by one-sided extra s um-o f-s quares F-t est
Data are represented as the
mean ± SEM (n=3 biologically independent samples). Sigmoidal dose-r esponse curves are
Polar area diagrams depict pathway activation at the endoplasmic
reticulum. Pathway-specific polar area diagrams for efficacy (normalized to the highest
were deemed to activate a given pathway after comparing the top and bottom parameters from
non-linear regression by one-sided extra sum-o f-s quares F-t est followed by Bonferroni

[2] = system: GLP-1R-expressing HEK293 cells (phosphoproteome); assay: Phosphoproteomics, GLP-1R-transfected cells, 30 min (experiment 2); type: cell-based, human; settings: GLP transfection, 1 μM
Experimental: (§1) P values were calculated by a two-sided unpaired t-test.
(§2) HEK293 cells (350,000 cells/mL) were transfected in suspension using 3 μg of linear PEI (MW 25,000) per 1 μg of plasmid DNA and seeded onto poly-D-lysine-coated 60 mm dishes at a density of 1,750,000 cells per dish. After a 24-h incubation, cells were washed twice with PBS and placed in starvation media (DMEM with penicillin/streptomycin). After a 48-h incubation, cells were washed twice with HBSS and maintained in the same buffer. […] Cell extracts were prepared as previously described[64]–[66]. In short, 200 μL of the lysis buffer preheated at 95 °C (4% sodium dodecyl sulfate in 50 mM Tris adjusted to pH 8.5) was added to the cells. The samples were then denatured at 95 °C for 10 min, placed on ice and then sonicated using a probe sonicator (3 sec on, 3 sec off pulse, 1 min, 30% amplitude) (Branson). Lysate protein concentration was determined using the Pierce bicinchoninic acid assay kit (Thermo Fisher Scientific) according to the manufacturer’s instructions. The lysates were reduced using 5 mM dithiothreitol for 1 h at room temperature and alkylated using 15 mM iodoacetamide for 1 h at room temperature in the dark. Proteins were precipitated and digested on beads using MagReSyn Amine magnetic beads (ReSyn Biosciences) according to the manufacturer’s instructions. Protein digestion was conducted overnight at 37 °C with lysyl endopeptidase (LysC, Wako) (1:150 LysC/protein, w/w) and trypsin (1:300 trypsin/protein, w/w). 20% TFA, 2 M glycolic acid in 80% ACN were added to the samples at a 1:1 ratio for phosphopeptide enrichment using MagReSyn TiO2 magnetic beads (ReSyn Biosciences) according to the manufacturer’s instructions. The enriched phosphopeptides were dried overnight in a SpeedVac, resuspended into 5% formic acid (FA), desalted using StageTip (Thermo Fisher Scientific) according to the manufacturer’s instructions and dried in a SpeedVac. The experiment was performed in biological triplicates.
(§3) All parameters and settings regarding the acquisition of the proteomics data can be found in Supplementary Data 11, 12. For data acquisition, the instrument was set to peptide mode, with a trapping pressure set as low (2mTorr). An EASY-Spray Source (Thermo Fisher Scientific) was used and the column temperature was maintained with the integrated, temperature-controlled heater at 55 °C throughout the experiment. For the data presented in Fig. 5d, the column was heated at 50 °C following the manufacturer’s instructions (IonOpticks).
Acquired raw files were converted to mzML format by MSConvert (version 3.0.21258)[67] applying peak picking of the mass spectra with the vendor-provided algorithm (Thermo Fisher Scientific). The mzML files were analyzed using the FragPipe GUI v18 for both library and DIA search. […] Trypsin with up to 2 missed cleavages was set as digestion enzyme, oxidation of methionine, acetylation of the N-terminus and phosphorylation on serine, threonine and tyrosine (maximal occurrence was set to three) were set as variable modifications. Carbamidomethylation of cysteine residues was set as a fixed modification. Peptide length was restricted to 7 to 50 amino acids, and 500 to 5000 Da. […] DIA files were analyzed by DIA-NN 1.8.1[71], [72] using the previously generated library and monitor-command mode. Peptide quantification was performed based on the fragment elution profiles from the MS2 level (area under the curve). […]

[3] = system: GLP-1R-expressing HEK293 cells + Dyngo-4A (phosphoproteome); assay: Phosphoproteomics, GLP-1R-transfected cells with internalization inhibitor Dyngo-4A, 30 min; type: cell-based, human; settings: 1 μM, 30 min, vs vehicle, n = 3
Experimental: as §1, §2, §3
Acquired raw files were converted to mzML format by MSConvert (version 3.0.21258)[67] applying peak picking of the mass spectra with the vendor-provided algorithm (Thermo Fisher Scientific). The mzML files were analyzed using the FragPipe GUI v18 for both library and DIA search. […] Trypsin with up to 2 missed cleavages was set as digestion enzyme, oxidation of methionine, acetylation of the N-terminus and phosphorylation on serine, threonine and tyrosine (maximal occurrence was set to three) were set as variable modifications. Carbamidomethylation of cysteine residues was set as a fixed modification. Peptide length was restricted to 7 to 50 amino acids, and 500 to 5000 Da. The precursor tolerance was set to ±20 ppm, fragment mass tolerance to 20 ppm and MSBooster was enabled. The resulting peptide-spectrum matches were adjusted to a 1% false discovery rate with Percolator[69] as part of the Philosopher toolkit (v4.4)[70] and converted to a spectra library. DIA files were analyzed by DIA-NN 1.8.1[71], [72] using the previously generated library and monitor-command mode. Peptide quantification was performed based on the fragment elution profiles from the MS2 level (area under the curve).
All further data processing was performed in R (version 4.2.1). Only phosphopeptides with a localization score of at least 0.75 were considered for further analysis. […]

[4] = target: kinase substrates (Kinase Library); assay: Kinase substrate enrichment analysis of regulated phosphopeptides; set-up: species or system human; settings: 1 μM
Experimental: All further data processing was performed in R (version 4.2.1). Only phosphopeptides with a localization score of at least 0.75 were considered for further analysis. Peptides quantified with different charge states were aggregated and only phosphopeptides with at least 2 quantifications for each time point, treatment and replicate were kept. Intensities were normalized by median centering and log2-scaling. Missing values were imputed by k-NN imputation. All statistical comparisons were performed based on homoscedastic two-tailed Student’s t-tests. For the kinase substrate enrichment analysis, the Kinase Library online analytical tool[73] was used with predetermined foreground and background sets based on previously determined significance thresholds (P < 0.05; log2 fold change >1). All remaining settings were left as default.

GLP-1R [5] = target: T1, GLP-1R; assay: Inverted Gini coefficients for pathway selectivity (efficacy, potency) per compartment
Experimental: Inverted Gini coefficients depict differences in drug-induced pathway selectivity for efficacy and potency. Inverted Gini coefficients were calculated to compare the similarities among the 15 tested pathways (Gs, Gq, G11 , G14, G15, G12, G13, Gi1, Gi2, Gi3, GoA, GoB, Gz, GRK/Gb g and bARR) for efficacy (a) and potency (b) across the four compartments included in this study (PM, EE, GA, ER) where 1 represents equality and 0 represents dissimilarity.

T1 sequence (P43220 24-463): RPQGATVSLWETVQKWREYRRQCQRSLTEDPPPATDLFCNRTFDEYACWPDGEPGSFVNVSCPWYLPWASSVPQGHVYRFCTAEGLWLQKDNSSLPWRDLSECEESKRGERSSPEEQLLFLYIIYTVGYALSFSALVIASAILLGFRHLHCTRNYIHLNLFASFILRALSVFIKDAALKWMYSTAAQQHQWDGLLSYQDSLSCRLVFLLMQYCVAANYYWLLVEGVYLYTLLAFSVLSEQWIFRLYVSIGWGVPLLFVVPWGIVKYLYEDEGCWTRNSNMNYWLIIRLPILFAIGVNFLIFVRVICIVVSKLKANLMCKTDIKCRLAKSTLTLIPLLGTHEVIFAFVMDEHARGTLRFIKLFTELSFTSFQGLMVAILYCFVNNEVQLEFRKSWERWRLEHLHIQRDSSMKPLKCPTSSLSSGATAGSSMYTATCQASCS

Compound: N#Cc1ccc(COc2cccc(C3CCN(Cc4nc5ccc(C(=O)O)cc5n4C[C@@H]4CCO4)CC3)n2)c(F)c1 [Danuglipron]
- Emax (GLP-1R [1]; GRK/Gβγ): 0.1421
- Emax (GLP-1R [1]; Gα11): 0
- Emax (GLP-1R [1]; Gα12): 0
- Emax (GLP-1R [1]; Gα13): 0
- Emax (GLP-1R [1]; Gα14): 0
- Emax (GLP-1R [1]; Gα15): 0
- Emax (GLP-1R [1]; Gαi1): 0
- Emax (GLP-1R [1]; Gαi2): 0
- Emax (GLP-1R [1]; Gαi3): 0
- Emax (GLP-1R [1]; GαoA): 0
- Emax (GLP-1R [1]; GαoB): 0
- Emax (GLP-1R [1]; Gαq): 0
- Emax (GLP-1R [1]; Gαs): 0.2391
- Emax (GLP-1R [1]; Gαz): 0
- Emax (GLP-1R [1]; βARR): 0.08276
- mGs recruitment at the endoplasmic reticulum, in words (GLP-1R [1]; Rluc8-mGs, tdrGFP-PTP1B, 60 min, n = 3): the only drug capable of recruiting mGs to the endoplasmic reticulum
- Efficacy (normalized) (GLP-1R [1]; GRK2/Gβγ, Supplementary Fig. 15c): 0.6257
- Efficacy (normalized) (GLP-1R [1]; Gα11, Supplementary Fig. 15c): 0
- Potency (logEC50) (GLP-1R [1]; Gα11, Supplementary Fig. 15d): 0
- Efficacy (normalized) (GLP-1R [1]; Gα12, Supplementary Fig. 15c): 0
- Potency (logEC50) (GLP-1R [1]; Gα12, Supplementary Fig. 15d): 0
- Efficacy (normalized) (GLP-1R [1]; Gα13, Supplementary Fig. 15c): 0
- Potency (logEC50) (GLP-1R [1]; Gα13, Supplementary Fig. 15d): 0
- Efficacy (normalized) (GLP-1R [1]; Gα14, Supplementary Fig. 15c): 0
- Potency (logEC50) (GLP-1R [1]; Gα14, Supplementary Fig. 15d): 0
- Efficacy (normalized) (GLP-1R [1]; Gα15, Supplementary Fig. 15c): 0
- Potency (logEC50) (GLP-1R [1]; Gα15, Supplementary Fig. 15d): 0
- Efficacy (normalized) (GLP-1R [1]; Gαi1, Supplementary Fig. 15c): 0
- Potency (logEC50) (GLP-1R [1]; Gαi1, Supplementary Fig. 15d): 0
- Efficacy (normalized) (GLP-1R [1]; Gαi2, Supplementary Fig. 15c): 0
- Potency (logEC50) (GLP-1R [1]; Gαi2, Supplementary Fig. 15d): 0
- Efficacy (normalized) (GLP-1R [1]; Gαi3, Supplementary Fig. 15c): 0
- Potency (logEC50) (GLP-1R [1]; Gαi3, Supplementary Fig. 15d): 0
- Efficacy (normalized) (GLP-1R [1]; GαoA, Supplementary Fig. 15c): 0
- Potency (logEC50) (GLP-1R [1]; GαoA, Supplementary Fig. 15d): 0
- Efficacy (normalized) (GLP-1R [1]; GαoB, Supplementary Fig. 15c): 0
- Potency (logEC50) (GLP-1R [1]; GαoB, Supplementary Fig. 15d): 0
- Efficacy (normalized) (GLP-1R [1]; Gαq, Supplementary Fig. 15c): 0
- Potency (logEC50) (GLP-1R [1]; Gαq, Supplementary Fig. 15d): 0
- Efficacy (normalized) (GLP-1R [1]; Gαs, Supplementary Fig. 15c): 1
- Potency (logEC50) (GLP-1R [1]; Gαs, Supplementary Fig. 15d): 0.2956
- Efficacy (normalized) (GLP-1R [1]; Gαz, Supplementary Fig. 15c): 0
- Potency (logEC50) (GLP-1R [1]; Gαz, Supplementary Fig. 15d): 0
- Efficacy (normalized) (GLP-1R [1]; βARR2, Supplementary Fig. 15c): 0.2909
- Potency (logEC50) (GLP-1R [1]; βARR2, Supplementary Fig. 15d): 0.3992
- log2.foldchange, PABPN1 S19 ([2]; vs time-matched vehicle, p […], n = 3): 1.128
- log2.foldchange, VPS51 S13 ([2]; vs vehicle, p 0.15884, n = 3): -0.5399
- log2.foldchange, EIF3J S20 ([2]; vs vehicle, p 0.656982, n = 3): -0.08041
- log2.foldchange, EIF3J S11 ([2]; vs vehicle, p 0.693473, n = 3): -0.5463
- log2.foldchange, VPS51 S18 ([2]; vs vehicle, p 0.842243, n = 3): 0.02396
- log2.foldchange, PABPN1 S19 ([3]; Dyngo internalization inhibitor (50 μM, 30 min pre), p 0.975742): 0.005523
- log2.foldchange, EIF3J S13 ([3]; Dyngo internalization inhibitor, p 0.0121456 (passed all criteria)): 2
- log2.foldchange, EIF3J S11;S13 ([3]; Dyngo internalization inhibitor, p 0.107013): 0.1859
- log2.foldchange, VPS51 S18 ([3]; Dyngo internalization inhibitor, p 0.460124): -0.1867
- log2.foldchange, POLE4 S9;T11 ([3]; Dyngo internalization inhibitor, p 0.765877): -0.2937
- kinase kinetics, in words [4]: distinctly different kinetics
- dominant_enrichment_value_log2, NUAK2 ([4]; 15min, log10 abs adjusted p 0.784095): 1.911
- dominant_enrichment_value_log2, PKACA ([4]; 15min, log10 abs adjusted p 0.96096): 2.68
- dominant_enrichment_value_log2, PRKD3 ([4]; 15min, log10 abs adjusted p 1.61335): 3.823
- dominant_enrichment_value_log2, PRKD2 ([4]; 15min, log10 abs adjusted p 1.89437): 2.877
- dominant_enrichment_value_log2, SIK ([4]; 15min, log10 abs adjusted p 3.68823): 3.799
- 1 - Gini (GLP-1R [5]; Early endosomes, Supplementary Fig. 18a): 0.2929
- 1 - Gini (GLP-1R [5]; Early endosomes, Supplementary Fig. 18b): 0.7742
- 1 - Gini (GLP-1R [5]; Endoplasmic reticulum, Supplementary Fig. 18a): 0.09
- 1 - Gini (GLP-1R [5]; Endoplasmic reticulum, Supplementary Fig. 18b): 0.8902
- 1 - Gini (GLP-1R [5]; Golgi apparatus, Supplementary Fig. 18a): 0.1115
- 1 - Gini (GLP-1R [5]; Golgi apparatus, Supplementary Fig. 18b): 0.854
- 1 - Gini (GLP-1R [5]; Plasma membrane, Supplementary Fig. 18a): 0.403
- 1 - Gini (GLP-1R [5]; Plasma membrane, Supplementary Fig. 18b): 0.7941
